# According to ChEMBL document CHEMBL6078658, “Use of imidazo[1,5-a]quinoline scaffold as the pharmacophore in the design of bivalent ligands of central benzodiazepine receptors” (Bioorg Med Chem, 2025):
# Assays:
# [1] = Displacement of [3H]flumazenil from CBR extracted from cerebral cortex of CD-1 albino mouse incubated for 90 mins by liquid scintillation counter analysis; type: cell membranes, Membranes
# [2] = molecular target: T1, GABA-A receptor; alpha-1/beta-3/gamma-2 (Homo sapiens, UniProt P14867+P18507+P28472); assay: Displacement of [3H]flumazenil from human recombinant alpha1-beta3-gamma2 GABAA receptors expressed in mouse LTK- cells incubated for 1 hr by liquid scintillation counter analysis; type: cell-based
# T1 sequence (P14867 whole entry): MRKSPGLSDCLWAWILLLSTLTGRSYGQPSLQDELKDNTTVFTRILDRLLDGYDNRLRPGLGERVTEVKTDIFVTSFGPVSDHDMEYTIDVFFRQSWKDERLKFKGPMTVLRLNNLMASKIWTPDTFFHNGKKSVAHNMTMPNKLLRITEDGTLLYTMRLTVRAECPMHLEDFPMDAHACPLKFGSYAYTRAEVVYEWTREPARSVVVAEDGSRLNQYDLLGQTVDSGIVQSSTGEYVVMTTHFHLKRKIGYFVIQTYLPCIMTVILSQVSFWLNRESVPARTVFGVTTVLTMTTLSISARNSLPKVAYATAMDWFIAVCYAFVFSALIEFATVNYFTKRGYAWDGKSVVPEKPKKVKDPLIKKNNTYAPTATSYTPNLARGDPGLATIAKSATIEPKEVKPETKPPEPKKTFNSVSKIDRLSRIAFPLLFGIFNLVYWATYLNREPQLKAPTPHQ
# T1 sequence (P18507 whole entry): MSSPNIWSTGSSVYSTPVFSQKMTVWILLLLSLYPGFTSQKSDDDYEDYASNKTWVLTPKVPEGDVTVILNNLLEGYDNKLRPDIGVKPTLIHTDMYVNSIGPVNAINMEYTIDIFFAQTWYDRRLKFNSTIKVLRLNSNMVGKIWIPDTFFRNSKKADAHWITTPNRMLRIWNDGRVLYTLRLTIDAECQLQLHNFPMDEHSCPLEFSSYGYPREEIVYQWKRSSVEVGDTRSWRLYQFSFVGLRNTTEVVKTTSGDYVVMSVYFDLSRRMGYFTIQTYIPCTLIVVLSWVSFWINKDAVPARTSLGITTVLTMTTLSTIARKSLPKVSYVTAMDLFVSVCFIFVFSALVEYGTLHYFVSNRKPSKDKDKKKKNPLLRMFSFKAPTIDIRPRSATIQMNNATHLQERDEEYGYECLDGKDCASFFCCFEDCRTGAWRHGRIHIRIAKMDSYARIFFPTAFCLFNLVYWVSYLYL
# T1 sequence (P28472 whole entry): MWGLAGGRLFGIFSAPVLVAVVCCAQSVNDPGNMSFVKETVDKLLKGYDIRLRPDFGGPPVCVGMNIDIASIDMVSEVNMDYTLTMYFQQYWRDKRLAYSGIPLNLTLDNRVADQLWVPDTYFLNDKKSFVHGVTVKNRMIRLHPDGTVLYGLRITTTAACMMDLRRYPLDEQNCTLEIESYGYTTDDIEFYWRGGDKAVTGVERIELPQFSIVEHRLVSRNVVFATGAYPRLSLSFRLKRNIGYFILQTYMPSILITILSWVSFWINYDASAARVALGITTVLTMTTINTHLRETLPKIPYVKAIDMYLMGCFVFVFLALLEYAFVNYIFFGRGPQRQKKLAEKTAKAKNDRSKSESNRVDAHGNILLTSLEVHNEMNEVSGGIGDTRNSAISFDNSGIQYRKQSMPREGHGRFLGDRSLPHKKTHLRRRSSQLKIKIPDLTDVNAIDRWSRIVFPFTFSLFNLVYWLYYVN
# [3] = molecular target: T2, GABA-A receptor; alpha-2/beta-3/gamma-2 (Homo sapiens, UniProt P18507+P28472+P47869); assay: Displacement of [3H]flumazenil from human recombinant alpha2-beta3-gamma2 GABAA receptors expressed in mouse LTK- cells incubated for 1 hr by liquid scintillation counter analysis; type: cell-based
# T2 sequence (P18507 whole entry): T1 sequence (P18507 whole entry)
# T2 sequence (P28472 whole entry): T1 sequence (P28472 whole entry)
# T2 sequence (P47869 whole entry): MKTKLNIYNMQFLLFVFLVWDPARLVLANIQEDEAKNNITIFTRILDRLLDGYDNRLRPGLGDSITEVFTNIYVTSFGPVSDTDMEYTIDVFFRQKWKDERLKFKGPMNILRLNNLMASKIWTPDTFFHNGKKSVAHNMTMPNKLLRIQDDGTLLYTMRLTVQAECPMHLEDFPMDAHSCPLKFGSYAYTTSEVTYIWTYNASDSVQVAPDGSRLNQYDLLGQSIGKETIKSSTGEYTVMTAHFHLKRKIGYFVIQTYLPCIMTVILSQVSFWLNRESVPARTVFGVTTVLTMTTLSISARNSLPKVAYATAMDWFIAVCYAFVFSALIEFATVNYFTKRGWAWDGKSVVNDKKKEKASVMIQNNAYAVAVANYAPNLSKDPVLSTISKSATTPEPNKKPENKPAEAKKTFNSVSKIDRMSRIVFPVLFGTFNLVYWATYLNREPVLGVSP
# [4] = Displacement of [3H]flumazenil from CBR at low affinity site extracted from cerebral cortex of CD-1 albino mouse incubated for 90 mins by liquid scintillation counter analysis; type: tissue-based
# [5] = Displacement of [3H]flumazenil from CBR at high affinity site extracted from cerebral cortex of CD-1 albino mouse incubated for 90 mins by liquid scintillation counter analysis; type: tissue-based
# Mus musculus [6] = assay: Anticonvulsant activity in PTZ-treated CD-1 mouse assessed as time taken for convulsion latency at 20 mg/kg pretreated for 30 mins followed by PTZ treatment measured for 30 mins post-PTZ dose (reference value: 19.3 +/- 4.1 min); type: functional; conditions: 0.5 h
# Mus musculus [7] = assay: Anticonvulsant activity in PTZ-treated CD-1 mouse assessed as time taken for death latency at 20 mg/kg pretreated for 30 mins followed by PTZ treatment measured for 30 mins post-PTZ dose (reference value: 28.4 +/- 4.8 min); type: functional; conditions: 0.5 h
# Mus musculus [8] = assay: Anxiolytic activity in CD-1 mouse assessed as time in light at 10 mg/kg treated for 30 mins by light/dark box test (reference value: 112.1 +/- 10.9 sec); type: functional; conditions: 0.5 h
# Mus musculus [9] = assay: Anxiolytic activity in CD-1 mouse assessed as time in light at 20 mg/kg treated for 30 mins by light/dark box test (reference value: 112.1 +/- 10.9 sec); type: functional; conditions: 0.5 h
# Mus musculus [10] = assay: Myorelaxant effect in CD-1 mouse assessed as time taken for myorelaxation at 20 mg/kg, po measured immediately post-dose by rota rod test (reference value: 5.0 +/- 0.4 min); type: functional
# Mus musculus [11] = assay: Myorelaxant effect in CD-1 mouse assessed as time taken for myorelaxation at 20 mg/kg, po measured after 15 mins post-dose by rota rod test (reference value: 3.1 +/- 0.4 min); type: functional; conditions: 0.25 h
# Mus musculus [12] = assay: Myorelaxant effect in CD-1 mouse assessed as time taken for myorelaxation at 20 mg/kg, po measured after 30 mins post-dose by rota rod test (reference value: 1.6 +/- 0.0 min); type: functional; conditions: 0.5 h
# Mus musculus [13] = assay: Myorelaxant effect in CD-1 mouse assessed as time taken for myorelaxation at 20 mg/kg, po measured after 45 mins post-dose by rota rod test (reference value: 1.0 +/- 0.2 min); type: functional; conditions: 0.75 h
# Mus musculus [14] = assay: Myorelaxant effect in CD-1 mouse assessed as time taken for myorelaxation at 20 mg/kg, po measured after 60 mins post-dose by rota rod test (reference value: 0.2 +/- 0.3 min); type: functional; conditions: 1 h
# Mus musculus [15] = assay: Improvement in learning and memory in CD-1 mouse assessed as time taken for training session at 20 mg/kg, po by passive avoidance test (reference value: 15.6 +/- 3.2 sec); type: functional
# Mus musculus [16] = assay: Improvement in learning and memory in CD-1 mouse assessed as time taken for retention session at 20 mg/kg, po by passive avoidance test (reference value: 15.6 +/- 3.2 sec); type: functional
# Mus musculus [17] = assay: Improvement in learning and memory in CD-1 mouse assessed as difference in time taken for training and retention session at 20 mg/kg, po by passive avoidance test (reference value: 76.8 sec); type: functional
# Mus musculus [18] = assay: Anxiolytic activity in CD-1 mouse assessed as time in light at 1 mg/kg treated for 30 mins by light/dark box test (reference value: 112.1 +/- 10.9 sec); type: functional; conditions: 0.5 h
# Mus musculus [19] = assay: Improvement in learning and memory in CD-1 mouse assessed as time taken for training session at 1 mg/kg, po by passive avoidance test (reference value: 15.6 +/- 3.2 sec); type: functional
# Mus musculus [20] = assay: Improvement in learning and memory in CD-1 mouse assessed as time taken for retention session at 1 mg/kg, po by passive avoidance test (reference value: 15.6 +/- 3.2 sec); type: functional
# Mus musculus [21] = assay: Improvement in learning and memory in CD-1 mouse assessed as difference in time taken for training and retention session at 1 mg/kg, po by passive avoidance test (reference value: 76.8 sec); type: functional
smiles,measurement,setting,value
CCOC(=O)c1ncn2c1c(C)c(C(=O)NCCOCCOCCOCCOCCOCCOCCOCCNC(=O)OC(C)(C)C)c1ccccc12,Ki,[1],0.66 nM
same,Ki,[2],42 nM
same,Ki,[3],63 nM
CCOC(=O)c1ncn2c1CN(C)C(=O)c1cc(F)ccc1-2 [FLUMAZENIL],Ki,[4],1.3 nM
CCOC(=O)c1ncn2c1c(C)c(C(=O)NCCCCCCCNC(=O)OC(C)(C)C)c1ccccc12,Ki,[4],6.4 nM
same,Ki,[5],61 nM
same,Ki,[2],31 nM
same,Ki,[3],33 nM
CCOC(=O)c1ncn2c1c(C)c(C(=O)NCCCCCCNC(=O)c1c(C)c3c(C(=O)OCC)ncn3c3ccccc13)c1ccccc12,Ki,[4],60 nM
same,Ki,[5],0.022 nM
same,Ki,[2],74 nM
same,Ki,[3],45 nM
same,Time,Mus musculus [6],22.8 min
same,Time,Mus musculus [7],40.5 min
same,Time,Mus musculus [8],114.3 s
same,Time,Mus musculus [9],166.2 s
same,Time,Mus musculus [10],4.9 min
same,Time,Mus musculus [11],3.2 min
same,Time,Mus musculus [12],1.9 min
same,Time,Mus musculus [13],0.7 min
same,Time,Mus musculus [14],0.1 min
same,Time,Mus musculus [15],15.3 s
same,Time,Mus musculus [16],86.1 s
same,Time,Mus musculus [17],70.8 s
CCOC(=O)c1ncn2c1c(C)c(C(=O)NCCOCCOCCOCCOCCOCCOCCOCCNC(=O)c1c(C)c3c(C(=O)OCC)ncn3c3ccccc13)c1ccccc12,Ki,[1],41 nM
same,Ki,[2],245 nM
same,Ki,[3],210 nM
CCOC(=O)c1ncn2c1c(C)c(C(=O)NCCCCCCCCNC(=O)c1c(C)c3c(C(=O)OCC)ncn3c3ccccc13)c1ccccc12,Ki,[4],52 nM
same,Ki,[5],0.05 nM
same,Ki,[2],64 nM
same,Ki,[3],56 nM
same,Time,Mus musculus [6],20.7 min
same,Time,Mus musculus [7],41.8 min
same,Time,Mus musculus [8],96.7 s
same,Time,Mus musculus [9],173.4 s
same,Time,Mus musculus [10],4.5 min
same,Time,Mus musculus [11],3 min
same,Time,Mus musculus [12],1.4 min
same,Time,Mus musculus [13],0.7 min
same,Time,Mus musculus [14],0.2 min
same,Time,Mus musculus [15],14.8 s
same,Time,Mus musculus [16],91.8 s
same,Time,Mus musculus [17],77 s
CCOC(=O)c1ncn2c1c(C)c(C(=O)NCCCCCCCCNC(=O)OC(C)(C)C)c1ccccc12,Ki,[4],51 nM
same,Ki,[5],0.005 nM
same,Ki,[2],39 nM
same,Ki,[3],42 nM
CCOC(=O)c1ncn2c1c(C)c(C(=O)NCCCCCCNC(=O)OC(C)(C)C)c1ccccc12,Ki,[4],35 nM
same,Ki,[5],65 nM
same,Ki,[2],10 nM
same,Ki,[3],14 nM
same,Time,Mus musculus [6],24.2 min
same,Time,Mus musculus [7],43.3 min
same,Time,Mus musculus [8],109.7 s
same,Time,Mus musculus [9],144.7 s
same,Time,Mus musculus [10],5.1 min
same,Time,Mus musculus [11],3.3 min
same,Time,Mus musculus [12],1.8 min
same,Time,Mus musculus [13],0.8 min
same,Time,Mus musculus [14],0.2 min
same,Time,Mus musculus [15],18.1 s
same,Time,Mus musculus [16],95.5 s
same,Time,Mus musculus [17],77.4 s
CCOC(=O)c1ncn2c1c(C)c(C(=O)NCCOCCOCCNC(=O)c1c(C)c3c(C(=O)OCC)ncn3c3ccccc13)c1ccccc12,Ki,[1],18 nM
same,Ki,[2],129 nM
same,Ki,[3],100 nM
CN1C(=O)CN=C(c2ccccc2)c2cc(Cl)ccc21 [DIAZEPAM],Ki,[4],3.5 nM
same,Time,Mus musculus [18],174.9 s
same,Time,Mus musculus [19],17.4 s
same,Time,Mus musculus [20],61 s
same,Time,Mus musculus [21],43.6 s
CCOC(=O)c1ncn2c1c(C)c(C(=O)NCCCCCCCNC(=O)c1c(C)c3c(C(=O)OCC)ncn3c3ccccc13)c1ccccc12,Ki,[4],12 nM
same,Ki,[5],0.001 nM
same,Ki,[2],74 nM
same,Ki,[3],74 nM
CCOC(=O)c1ncn2c1c(C)c(C(=O)NCCOCCOCCNC(=O)OC(C)(C)C)c1ccccc12,Ki,[1],12 nM
same,Ki,[2],615 nM
same,Ki,[3],400 nM
